Laboratory results from the NIST ThermoML archive (doi:10.1016/j.fluid.2019.02.010).
± gives the expanded uncertainty stated by the source.

Experiment: xn = mol fraction of the nth substance listed
Conditions: 101 kPa, Liquid, Vibrating tube method

Row | SMILES | mass density (293 K, x2 = 0.667) | mass density (298 K, x2 = 0.667) | mass density (303 K, x2 = 0.667) | mass density (308 K, x2 = 0.667) | mass density (313 K, x2 = 0.667) | mass density (318 K, x2 = 0.667) | mass density (323 K, x2 = 0.667) | mass density (328 K, x2 = 0.667) | further results
1 | CCN(CC)CC(=O)Nc1c(C)cccc1C [2-(diethylamino)-N-(2,6-dimethylphenyl)acetamide] + CCCCCCCCCC(=O)O | 960.9 ± 0.6 kg/m3 | 956.8 ± 0.6 kg/m3 | 952.8 ± 0.6 kg/m3 | 948.7 ± 0.6 kg/m3 | 944.7 ± 0.6 kg/m3 | 940.6 ± 0.6 kg/m3 | 936.4 ± 0.6 kg/m3 | 932.3 ± 0.6 kg/m3 | mass density (293 K, x2 = 0.75): 952.5 ± 0.6 kg/m3; mass density (293 K, x2 = 0.8): 944.9 ± 0.6 kg/m3; mass density (298 K, x2 = 0.75): 948.4 ± 0.6 kg/m3; mass density (298 K, x2 = 0.8): 940.9 ± 0.6 kg/m3; mass density (303 K, x2 = 0.75): 944.3 ± 0.6 kg/m3; mass density (303 K, x2 = 0.8): 936.9 ± 0.6 kg/m3; mass density (308 K, x2 = 0.75): 940.2 ± 0.6 kg/m3; mass density (308 K, x2 = 0.8): 932.9 ± 0.6 kg/m3; mass density (313 K, x2 = 0.75): 936.1 ± 0.6 kg/m3; mass density (313 K, x2 = 0.8): 928.9 ± 0.6 kg/m3; mass density (318 K, x2 = 0.75): 931.9 ± 0.6 kg/m3; mass density (318 K, x2 = 0.8): 924.7 ± 0.6 kg/m3; mass density (323 K, x2 = 0.75): 927.7 ± 0.6 kg/m3; mass density (323 K, x2 = 0.8): 920.6 ± 0.6 kg/m3; mass density (328 K, x2 = 0.75): 923.5 ± 0.6 kg/m3; mass density (328 K, x2 = 0.8): 916.4 ± 0.6 kg/m3
2 | CCN(CC)CC(=O)Nc1c(C)cccc1C [2-(diethylamino)-N-(2,6-dimethylphenyl)acetamide] + CCCCCCCCCCCC(=O)O | 949.6 ± 0.6 kg/m3 | 945.6 ± 0.6 kg/m3 | 941.6 ± 0.6 kg/m3 | 937.6 ± 0.6 kg/m3 | 933.6 ± 0.6 kg/m3 | 929.6 ± 0.5 kg/m3 | 925.55 ± 0.54 kg/m3 | 921.5 ± 0.5 kg/m3 | –
3 | CCN(CC)CC(=O)Nc1c(C)cccc1C [2-(diethylamino)-N-(2,6-dimethylphenyl)acetamide] + Cc1ccc(C(C)C)c(O)c1 | 989.1 ± 0.2 kg/m3 | 985.4 ± 0.2 kg/m3 | 981.6 ± 0.2 kg/m3 | 977.9 ± 0.2 kg/m3 | 974.2 ± 0.2 kg/m3 | 970.4 ± 0.2 kg/m3 | 966.6 ± 0.2 kg/m3 | 962.9 ± 0.2 kg/m3 | –
4 | Cc1ccc(C(C)C)c(O)c1 [3-methyl-6-isopropylphenol] + CCCCCCCCCC(=O)O | – | – | – | – | – | – | – | – | mass density (293 K, x2 = 0.5): 931.8 ± 0.5 kg/m3; mass density (298 K, x2 = 0.5): 928 ± 0.5 kg/m3; mass density (303 K, x2 = 0.5): 924.2 ± 0.5 kg/m3; mass density (308 K, x2 = 0.5): 920.3 ± 0.5 kg/m3; mass density (313 K, x2 = 0.5): 916.5 ± 0.5 kg/m3; mass density (318 K, x2 = 0.5): 912.6 ± 0.5 kg/m3; mass density (323 K, x2 = 0.5): 908.7 ± 0.4 kg/m3; mass density (328 K, x2 = 0.5): 904.9 ± 0.4 kg/m3
5 | CCCCCCCCCC(=O)O [decanoic acid] + CC(C)[C@@H]1CC[C@@H](C)C[C@H]1O | – | – | – | – | – | – | – | – | mass density (293 K, x1 = 0.5): 901.1 ± 0.4 kg/m3; mass density (298 K, x1 = 0.5): 897.6 ± 0.4 kg/m3; mass density (303 K, x1 = 0.5): 894 ± 0.4 kg/m3; mass density (308 K, x1 = 0.5): 890.4 ± 0.4 kg/m3; mass density (313 K, x1 = 0.5): 886.7 ± 0.4 kg/m3; mass density (318 K, x1 = 0.5): 883.1 ± 0.4 kg/m3; mass density (323 K, x1 = 0.5): 879.4 ± 0.4 kg/m3; mass density (328 K, x1 = 0.5): 875.7 ± 0.4 kg/m3
6 | CCCCCCCC[N+](CCCCCCCC)(CCCCCCCC)CCCCCCCC.[Br-] [tetraoctylammonium bromide] + CCCCCCCCCC(=O)O | 932.9 ± 0.8 kg/m3 | 929.6 ± 0.8 kg/m3 | 926.3 ± 0.8 kg/m3 | 923 ± 0.8 kg/m3 | 919.7 ± 0.8 kg/m3 | 916.5 ± 0.7 kg/m3 | 913.2 ± 0.7 kg/m3 | 910 ± 0.7 kg/m3 | –
